Each structure is given as a SMILES string.

One data set relates to bEnd.3 cells. The data set is described as follows: Cell survival rate by tetrazolium blue colorimetry, bEnd.3 cells. It is filed as cell-based. As to conditions: 10 μM (therapeutic dose), FIGS. 13 and 14. On the procedure: (§1) FIG. 13: Evaluation of cell survival rate in a Transwell model. A Transwell model of co-incubation of brain microvascular endothelial cells bEnd.3 and glioma cells U87 MG simulates a pathological blood-brain barrier. Axitinib (10 μM) and an Axitinib analog of phosphatidylinositol kinase (PI3K) inhibitor LY294002 (10 μM) were added into the Transwell chamber. After 24 hours, the survival rate of bEnd.3 cells in the Transwell chamber (Panel A) and U87 MG cells in the Transwell outer chamber (Panel B) were detected by tetrazolium blue colorimetry (n=3).
(§2) FIG. 14: Evaluation of Cytotoxicity for Axitinib and an analog thereof. […] Cell survival rate was detected by tetrazolium blue colorimetry. […]
(§3) The physiological blood-brain barrier and the pathological blood-brain barrier as constructed in Method 1 and Method 2 in the Example 1 were used as models, respectively. […] Absorbance at 570 nm was measured with a microplate reader. The survival rate of cells was calculated according to the following formula: Survival rate of cells (%)=(absorbance value of a test group/absorbance value of a control group)×100%
(§4) In addition, bEnd.3 cells and U87 MG glioma cells were used as model cells to evaluate the cytotoxicity of Axitinib and an Axitinib analog of phosphatidylinositol kinase (PI3K) inhibitor LY294002 with the tetrazolium blue colorimetric method. […] Absorbance at 570 nm was measured with a microplate reader.

In the next data set the test system is U87 MG glioma cells. Briefly: Cell survival rate by tetrazolium blue colorimetry, U87 MG cells. The format is cell-based. As to conditions: U87MG cells, 10 μM (therapeutic dose); FIGS. 13 and 14. The procedure: as §1, §2, §3, §4
Data set [1] relates to pathological blood-brain barrier. The data set is described as follows: Evans blue permeation into the brain after treatment, model of Parkinson's disease. As to conditions: Axitinib 10 mg/kg tail vein 7 days; levodopa 20 mg/kg intraperitoneally 10 days; vs Parkinson's control; FIGS. 26 and 27. The format is in vivo, C57/BL6 mice.
In data set [2] the test system is model of Parkinson's disease. The data set is described as follows: Movement time within 2 minutes, model of Parkinson's disease. The format is in vivo, C57/BL6 mice. The following applies: Axitinib 10 mg/kg 7 days; levodopa 20 mg/kg 10 days; vs Parkinson's control; FIG. 28. On the procedure:
After the treatment was accomplished, movement time within 2 minutes (walking, lifting of both forelimbs, washing face, hair grooming and the like) was recorded for each of the test groups (n=5).
After the Axitinib treatment and the levodopa treatment was accomplished, movement time within 2 minutes (walking, lifting of both forelimbs, washing face, hair grooming and the like) was recorded for each of the test groups.

A further data set concerns tyrosine hydroxylase. The data set is described as follows: Striatum tyrosine hydroxylase immunohistochemistry, model of Parkinson's disease. As to conditions: Axitinib 10 mg/kg 7 days; levodopa 20 mg/kg 10 days; FIG. 29.

Regarding `O=c1cc(N2CCOCC2)oc2c(-c3ccccc3)cccc12` [LY294002], the Cytotoxicity result in the data set with bEnd.3 cells and in the data set with U87 MG glioma cells was “do not produce significant cytotoxicity” in each case.

Consider `N[C@@H](Cc1ccc(O)c(O)c1)C(=O)O` [levodopa], for which the “Amount of Evans blue permeated into the brain” value in data set [1] is on record as “reduced to varied degrees”. The “Dyskinesia (movement time within 2 minutes)” value in data set [2] was “significantly alleviated”. Also, the “Expression of striatum tyrosine hydroxylase” value in the data set with tyrosine hydroxylase is reported as “significantly up-regulated”.

The values above are taken from patent US12419875B2, “Use of Axitinib and analogs thereof in preparing blood-brain barrier permeability regulator” (ZHEJIANG UNIVERSITY, priority 2018, dated 2025).
